Source: ChEMBL document CHEMBL5360649, “Potential Broad-Spectrum Antimicrobial, Wound Healing, and Disinfectant Cationic Peptide Crafted from Snake Venom” (J Med Chem, 2023)
The source made the active and inactive calls. No cut-off for these calls is given here.

Tests used:
Lipopolysaccharide (LPS) = assay: Displacement of BODIPY-TR-cadaverin from Escherichia coli O111:B4 Lipopolysaccharide assessed as increase in binding factor at 10 to 40 uM preincubated for 15 mins followed by BODIPY-TR-cadaverin addition and measured after 15 mins by fluorescence based analysis; conditions: dose 10-40 µM, time 30.0 min
[1] = Stability in human serum assessed as intact peptide remaining at 1 mM measured after 24 hrs by HPLC analysis; type: ADME, cell-free; conditions: read-out: Stability
[2] = Stability in human serum assessed as intact peptide remaining at 1 mM measured after 12 hrs by HPLC analysis; type: ADME, cell-free; conditions: read-out: Stability
Pseudomonas aeruginosa [3] = assay: Antibacterial activity against patient-derived Pseudomonas aeruginosa assessed as inhibition of bacterial growth incubated for 24 hrs by CLSI protocol based microdilution method; type: functional
Staphylococcus aureus [4] = assay: Antibacterial activity against patient-derived methicillin-resistant Staphylococcus aureus assessed as inhibition of bacterial growth incubated for 24 hrs by CLSI protocol based microdilution method; type: functional
Escherichia coli [5] = assay: Bactericidal activity against Escherichia coli ATCC CRM-11229 assessed as reduction in bacterial growth incubated for 24 hrs by Mueller Hinton Agar based plate analysis; type: functional
[6] = […] activity against LPS-induced human PBMC assessed as increase in cell number by measuring rise in cell proliferation percentage at 12.5 uM measured after 12 hrs by lymphocyte proliferation assay (12 hrs incubated Rvb = 478.774%); type: functional
[7] = Cytotoxicity against human WI-38 cells assessed as cell viability at 12.5 uM incubated for 24 hrs by MTT assay relative to control; type: toxicity, cell-based; conditions: read-out: Activity
[8] = Cytotoxicity against human A549 cells assessed as cell viability at 12.5 uM incubated for 24 hrs by MTT assay relative to control; type: toxicity, cell-based; conditions: read-out: Activity
Erythrocyte = assay: Cytotoxicity against human RBC assessed as less damage to cells at 12.5 to 25 uM by SEM analysis; type: toxicity, cell-based; conditions: dose 12.5-25 µM
U-937 = assay: Immunomodulatory activity in human U-937 cells assessed as reduction in LPS-induced TNF-alpha expression level incubated for 24 hrs by radioimmunoprecipitation based dot-plot analysis; type: functional, cell-based; conditions: dose 5-10 µM
RAW264.7 = assay: Antiinflammatory activity in LPS-induced mouse RAW264.7 cells assessed as increase in TGF-beta1 expression at 5 to 10 uM incubated for 24 hrs by radioimmunoprecipitation based dot-plot analysis; type: functional, cell-based; conditions: dose 5-10 µM
Klebsiella pneumoniae [9] = assay: Antibacterial activity against carbapenem resistance Klebsiella pneumoniae ATCC BAA-1705 assessed as inhibition of bacterial growth incubated for 0.5 to 8.5 hrs by microtiter plate reader analysis; type: functional, organism-based; conditions: dose 1.25-40 µM, time 0.5-8.5 hrs
Staphylococcus aureus [10] = assay: Antibacterial activity against methicillin resistant Staphylococcus aureus assessed as inhibition of bacterial growth at 1.25 to 40 uM by microtiter plate reader analysis; type: functional, organism-based; conditions: dose 1.25-40 µM, time 0.5-8.5 hrs, TDE = time-dependent effect
Pseudomonas aeruginosa [11] = assay: Antibacterial activity against Pseudomonas aeruginosa assessed as inhibition of bacterial growth at 1.25 to 40 uM by microtiter plate reader analysis; type: functional, organism-based; conditions: dose 1.25-40 µM, time 0.5-8.5 hrs, TDE = time-dependent effect
Escherichia coli [12] = assay: Induction of morphological changes in Escherichia coli at MIC concentration incubated for 6 hrs by AFM analysis; type: functional, organism-based
Escherichia coli [13] = assay: Induction of morphological changes in Escherichia coli assessed as cellular destruction at MIC concentration incubated for 6 hrs by AFM analysis; type: functional, organism-based
Staphylococcus aureus [14] = assay: Induction of morphological changes in methicillin-resistant Staphylococcus aureus assessed as cellular destruction at MIC concentration incubated for 6 hrs by AFM analysis; type: functional, organism-based
Pseudomonas aeruginosa [15] = assay: Induction of morphological changes in Pseudomonas aeruginosa assessed as cellular destruction at MIC concentration incubated for 6 hrs by AFM analysis; type: functional, organism-based
Escherichia coli [16] = assay: Induction of morphological changes in Escherichia coli assessed as membrane damage at MIC concentration incubated for 60 mins by SEM analysis; type: functional, organism-based
Staphylococcus aureus [17] = assay: Induction of morphological changes in methicillin-resistant Staphylococcus aureus assessed as membrane damage at MIC concentration incubated for 60 mins by SEM analysis; type: functional, organism-based
Escherichia coli [18] = assay: Induction of morphological changes in Escherichia coli assessed as cell blebbing at MIC concentration incubated for 60 mins by SEM analysis; type: functional, organism-based
Klebsiella pneumoniae [19] = assay: Induction of morphological changes in carbapenem resistant Klebsiella pneumoniae ATCC BAA-1705 assessed as cellular defacement at MIC concentration incubated for 60 mins by SEM analysis; type: functional, organism-based
Cell membrane = assay: Induction of cytoplasmic membrane depolarization in Pseudomonas aeruginosa assessed as increase in fluorescence intensity at 0.5 to 1 times of MIC by DiSC3-5 dye based fluorescence method; type: subcellular
Pseudomonas aeruginosa [20] = assay: Antibacterial activity against Pseudomonas aeruginosa assessed as induction of cellular damage at MIC concentration incubated for 30 mins by SYTO9/PI staining based fluorescence microscopic analysis; type: functional, organism-based
Pseudomonas aeruginosa [21] = assay: Antibiofilm activity against Pseudomonas aeruginosa assessed as biofilm eradication at 0.5 times of MIC incubated for 24 hrs by CV staining based analysis relative to control; type: functional
Staphylococcus aureus [22] = assay: Antibiofilm activity against methicillin-resistant Staphylococcus aureus assessed as biofilm eradication at 0.5 times of MIC incubated for 24 hrs by CV staining based analysis relative to control; type: functional
Klebsiella pneumoniae [23] = assay: Antibiofilm activity against Klebsiella pneumoniae assessed as clearance of preformed biofilm at 1 times of MIC incubated for 24 hrs by CV staining based analysis relative to control; type: functional
Pseudomonas aeruginosa [24] = assay: Antibiofilm activity against Pseudomonas aeruginosa assessed as clearance of preformed biofilm at 0.5 times of MIC incubated for 24 hrs by CV staining based analysis relative to control; type: functional
Escherichia coli [25] = assay: Antibiofilm activity against Escherichia coli in the presence of Na+; type: functional, organism-based
Pseudomonas aeruginosa [26] = assay: Antibiofilm activity against Pseudomonas aeruginosa in the presence of Cl-; type: functional, organism-based
Klebsiella pneumoniae [27] = assay: Antibiofilm activity against Klebsiella pneumoniae assessed as biofilm disintegration at 0.5 to 1 times of MIC incubated for 24 hrs by Congo red dye based fluorescence analysis; type: functional, organism-based
Klebsiella pneumoniae [28] = assay: Antibiofilm activity against Klebsiella pneumoniae assessed as increase in dead cell proportion at MIC incubated overnight by SYTO9/PI staining based fluorescence analysis; type: functional, organism-based
Staphylococcus aureus [29] = assay: Antibiofilm activity against preformed biofilm in methicillin-resistant Staphylococcus aureus assessed as decrease in metabolic activity at MIC incubated overnight by MTT assay; type: functional, organism-based
Klebsiella pneumoniae [30] = assay: Antibiofilm activity against preformed biofilm in Klebsiella pneumoniae assessed as decrease in cell viability at 0.5 times of MIC incubated overnight by MTT assay relative to control; type: functional
NMDF [31] = assay: Induction of cell migration in NMDF cells at 10 uM incubated for 24 hrs by wound healing scratch/mirgation assay; type: functional, cell-based; conditions: Mus musculus
NMDF [32] = assay: Induction of cell migration in NMDF cells at 5 uM incubated for 24 hrs by wound healing scratch/mirgation assay; type: functional, cell-based; conditions: Mus musculus
[33] = Induction of wound healing in surgically-induced Albino Wistar rat wound model inoculated with methicillin-resistant Staphylococcus aureus assessed as decrease in mean open wound percentage at 10 uM measured after 11 days by photographic analysis (reference value: 32.25%); type: functional; design: scale not given: the % may be the effect or the level left; conditions: time 11 day
Rattus norvegicus = organism: Rattus norvegicus; assay: Induction of wound healing in surgically-induced Albino Wistar rat wound model inoculated with methicillin-resistant Staphylococcus aureus assessed as reduction in inflammatory cell infiltration at 10 uM measured after 11 days by H&E staining based analysis; type: functional; conditions: time 11.0 day

H-FLPIIKWVKKFFWRWR-OH
Activity (Lipopolysaccharide (LPS)): Active | remaining at 24 h, 1000 µM [1]: 47.1% | remaining at 12 h, 1000 µM [2]: 54.5% | MIC (Pseudomonas aeruginosa [3]): 4 µM | MIC (Staphylococcus aureus [4]): 6 µM | MBC (Escherichia coli [5]): 4.5 µM | Activity [6]: 52.357% | viability at 24 h, 12.5 µM [7]: 91.5% | viability at 24 h, 12.5 µM [8]: 74.3% | Activity (Erythrocyte): Non-Toxic | Activity (U-937): Dose-Dependent Effect | Activity (RAW264.7): Active | Activity (Klebsiella pneumoniae [9]): Dose-Dependent Effect | Activity (Staphylococcus aureus [10]): Tde | Activity (Pseudomonas aeruginosa [11]): Tde | Activity (Escherichia coli [12]): Active | Activity (Escherichia coli [13]): Active | Activity (Staphylococcus aureus [14]): Active | Activity (Pseudomonas aeruginosa [15]): Active | Activity (Escherichia coli [16]): Active | Activity (Staphylococcus aureus [17]): Active | Activity (Escherichia coli [18]): Active | Activity (Klebsiella pneumoniae [19]): Active | Activity (Cell membrane): Active | Activity (Pseudomonas aeruginosa [20]): Active | Activity (Pseudomonas aeruginosa [21]): ~50% | Activity (Staphylococcus aureus [22]): ~70% | Activity (Klebsiella pneumoniae [23]): ~70% | Activity (Pseudomonas aeruginosa [24]): ~53% | Activity (Escherichia coli [25]): Active | Activity (Pseudomonas aeruginosa [26]): Active | Activity (Klebsiella pneumoniae [27]): Active | Activity (Klebsiella pneumoniae [28]): Active | Activity (Staphylococcus aureus [29]): Active | Activity (Klebsiella pneumoniae [30]): 79.96% | Activity (NMDF [31]): Active | Activity (NMDF [32]): inactive | Activity [33]: 17.22% | Activity (Rattus norvegicus): Active
